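How tested: cells in 96-well plates exposed to compound for 48 hours at five concentrations. GI50 marks 50% less growth. TGI: total growth inhibition.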
Legend:
Assay in all cases: growth of human tumour cells (NCI), 48 h
DU-145 prostate = system: DU-145 prostate
UACC-257 melanoma = system: UACC-257 melanoma
HL-60(TB) leukemia = system: HL-60(TB) leukemia
A549 NSCLC = system: A549 NSCLC
MDA-MB-231 breast = system: MDA-MB-231 breast
EKVX NSCLC = system: EKVX NSCLC
HCC-2998 colon = system: HCC-2998 colon
SK-MEL-28 melanoma = system: SK-MEL-28 melanoma
SF-268 CNS = system: SF-268 CNS
PC-3 prostate = system: PC-3 prostate

Row | Structure (SMILES) | GI50 (DU-145 prostate) [µM] | TGI (DU-145 prostate) [µM] | GI50 (UACC-257 melanoma) [µM] | TGI (UACC-257 melanoma) [µM] | GI50 (HL-60(TB) leukemia) [µM] | TGI (HL-60(TB) leukemia) [µM] | GI50 (A549 NSCLC) [µM] | TGI (A549 NSCLC) [µM] | GI50 (MDA-MB-231 breast) [µM] | TGI (MDA-MB-231 breast) [µM] | GI50 (EKVX NSCLC) [µM] | TGI (EKVX NSCLC) [µM] | GI50 (HCC-2998 colon) [µM] | TGI (HCC-2998 colon) [µM] | GI50 (SK-MEL-28 melanoma) [µM] | TGI (SK-MEL-28 melanoma) [µM] | GI50 (SF-268 CNS) [µM] | TGI (SF-268 CNS) [µM] | GI50 (PC-3 prostate) [µM] | TGI (PC-3 prostate) [µM]
1 | COc1ccc(Nc2nc3ccccc3c3occc23)cc1 | 6.65 | 13.1 | 19.8 | > 50 | 10.3 | > 50 | 32.9 | > 50 | 1.34 | 10.3 | 9.96 | > 50 | 5 | 11.1 | 7.19 | 18.8 | 6.55 | 14.4 | 12.9 | > 50
2 | NS(=O)(=O)c1ccc(N=Nc2c(O)[nH]c3ccc(C(=O)NCc4ccncc4)cc23)cc1 | > 25 | > 25 | > 25 | > 25 | > 25 | > 25 | > 25 | > 25 | > 25 | > 25 | > 25 | > 25 | > 25 | > 25 | > 25 | > 25 | > 25 | > 25 | > 25 | > 25
3 | NC(=O)[C@@H](CC1CC1)[C@@H](CCC(F)(F)F)C(=O)N[C@H]1N=C(c2ccccc2)c2cccc(F)c2NC1=O | > 100 | > 100 | > 100 | > 100 | 11.5 | 39.1 | > 100 | > 100 | 18.8 | 42.7 | > 100 | > 100 | > 100 | > 100 | 19.7 | 52.4 | > 100 | > 100 | 69 | > 100
4 | C=C/C(C)=C/C[C@]1(C)[C@H](C)[C@@H](OC(=O)CCC)[C@H](O)[C@@]23C(=C[C@H](OC)C[C@@H]12)[C@@H](OC(=O)CCC)O[C@H]3OC(C)=O | 1.53 | 2.9 | 0.854 | 2.56 | 0.228 | 0.693 | 1.65 | 3.62 | 0.857 | 2.45 | 0.987 | 2.61 | 0.238 | 0.71 | 0.431 | 1.63 | 1.58 | 3.25 | 0.511 | 2.31
5 | CN1CCN(Cc2ccc(NC(=O)c3cncc(C#Cc4cnc(N)cc4C#N)c3)cc2C(F)(F)F)CC1 | 3.25 | 15.5 | 3.24 | 15.4 | 0.768 | 3.58 | 3.89 | 15.4 | 1.15 | 3.1 | 3.4 | 14.7 | 3.9 | 15.4 | 1.11 | 9 | 3.7 | 19.2 | 3.5 | 19
6 | Cc1ccc2nc(-c3ccc(OCC(=O)N=Nc4c(O)[nH]c5ccccc45)cc3)[nH]c2c1 | 3.29 | 13.5 | 29.8 | > 100 | 9.8 | 35.9 | 2.38 | 6.32 | 1.83 | 3.93 | 28 | > 100 | 4.1 | 20.5 | 2.61 | 7 | 3.54 | 14.4 | 1.74 | 3.65
7 | O=[N+]([O-])c1cccc(-c2nc(-c3ccccc3)c(-c3ccccc3)[nH]2)c1 |  | > 100 |  | > 100 |  | > 100 |  | > 100 |  | > 100 |  | > 100 |  | > 100 |  | > 100 |  | > 100 |  | > 100
8 | COc1cccc(CN(C)c2ccc(CO)c(Cl)c2)c1 | 37.1 | > 100 | 0.216 | 0.679 | 26 | > 87.1 | 4.09 | 40.1 | 31 | > 100 | 24.8 | 97.9 | 16.9 | 74.8 | 24.2 | > 100 | 44.5 | > 100 | 30.6 | > 100
9 | CCCn1cnc2c(SCC(=O)O)nc(N)nc21 |  | > 100 |  | > 100 |  | > 100 |  | > 100 |  | > 100 |  | > 100 |  | > 100 |  | > 100 |  | > 100 |  | > 100
10 | CNNC(=N\S(=O)(=O)c1cc(C)c(Cl)cc1SCc1ccccc1)/N=C/c1ccc([N+](=O)[O-])s1 | > 100 | > 100 | > 100 | > 100 | > 100 | > 100 | 59.2 | > 100 | > 56.7 | > 100 | > 29.6 | > 100 | 1.29 |  | > 100 | > 100 | > 100 | > 100 | > 100 | > 100
11 | C=C1C(=O)O[C@H]2[C@H]1CC/C(COC(=O)NCc1ccc(OC)cc1)=C\CC[C@@]1(C)O[C@@H]21 | 0.726 | 2.95 | 0.766 | 2.55 | 0.813 | 2.1 | 4.28 | 19.2 | 1.17 | 3.96 | 3.93 | 17.4 | 1.75 | 6.67 | 0.726 | 1.7 | 1.72 | 13.4 | 2.61 | 14.3
12 | COc1ccc(NC(=O)/C=C(C)/C=C/C=C(C)/C=C/C2=C(C)CCCC2(C)C)cc1 | 8.2 | 20.3 | 12.3 | 26.7 | 2.85 | 6.01 | 14.9 | 30.7 | 4.25 | 15.1 | 14.9 | 29.2 | 17.7 | 33.5 | 4.13 | 14.1 | 4.95 | 17.3 | 3.18 | 11.8
13 | COC(=O)C(CCC(=O)CCl)N1C(=O)c2ccccc2C1=O (centres undefined) |  | 26.9 |  | 22.2 |  | 5.71 |  | 35.3 |  | 28.7 |  | 35.3 |  | 22.5 |  | 23.5 |  | 28.4 |  | 26.5
14 | COC(=O)c1cc2c(cc1Cl)SC1=NN(C)S(=O)N1S2(=O)=O (centres undefined) | > 100 | > 100 | > 100 | > 100 | > 100 | > 100 | > 100 | > 100 | > 100 | > 100 | > 100 | > 100 | > 100 | > 100 | > 100 | > 100 | > 100 | > 100 | > 100 | > 100
15 | CN(C)c1ccc(/C=C2\N=C(c3ccccc3)N(c3cc(C(F)(F)F)ccc3Cl)C2=O)cc1 | > 100 | > 100 | > 100 | > 100 | > 100 | > 100 | > 100 | > 100 | > 100 | > 100 | > 100 | > 100 | > 100 | > 100 | > 100 | > 100 | > 100 | > 100 | > 100 | > 100
16 | CCOc1ccc2c(c1)C(=O)c1c-2n(CCCBr)c(=O)c2cc([N+](=O)[O-])ccc12 | 4.29 | > 100 | 40.9 | 98.3 | 64.5 | > 100 | 29 | > 100 | > 100 | > 100 | 86.1 | > 100 | 57.7 | > 100 | 88.8 | > 100 | 5.1 | > 100 | > 100 | > 100
